From patent US20150175545A1, “Preparation Method of Fluoro-Substituted Deuterated Diphenylurea” (SUZHOU ZELGEN BIOPHARMACEUTICAL CO., LTD, priority 2012, published 2015)
Values joined by “and” are separate entries in the source; they are usually repeats but may differ in a detail not shown here. Equal values may be shown once. Read-outs that look alike come from different tables or passages of the source.

Key:
[1] = Pharmacokinetic evaluation of CM4309.TsOH, CM4309.HCl and CM4309.H2O in SD rats; format: in vivo; conditions: for HL_Lambda_z / AUCINF_obs / AUClast / Cmax / MRTINF_obs / Tmax / AUC(0-t) / AUC(0-inf) / MRT inf: 3 mg/kg (calculated by CM4309) intragastric, suspension in 0.5% CMC, CM4309 in plasma; for AUClast (Area Under Curve, Plasma Exposure) relative to CM4309.H2O / Cmax relative to CM4309.H2O: SD rats, 3 mg/kg intragastric, ratio to CM4309.H2O; for AUC(0-inf): read-out: AUCINF_obs; for MRT inf: read-out: MRTINF_obs
Experimental: Twelve male SD rats, weighing about 170 g, were randomly separated into […] and four rats in each group, and fasted overnight. The rats were administrated intragastric ally at a dose of 3 mg/kg (in a concentration of 1 mg/mL calculated by CM4309, and suspended in 0.5% CMC in purified water) of CM4309.TsOH, CM4309.HCl or CM4309.H2O. After administration, blood samples were collected at 0.25, 0.5, 1, 2, 4, 6, 8, 12, 24, 36 and 48 h. The blood samples were centrifuged for 5 minutes at 5000 rpm to separate the plasma. The concentration of CM4309 in plasma was measured by LC/MS/MS to compare the PK difference between CM4309 salts and CM4309 (see Table 1).

[2] = Pharmacokinetic evaluation of CM4309.TsOH and CM4309.H2O in Beagle dogs; format: in vivo; conditions: for AUC(0-t) / Cmax / Tmax / AUClast: 2.5 mg/kg (calculated by CM4309) oral in capsule, 2×2 crossover, CM4309 in plasma
Experimental: Four female Beagle dogs, 7-9 months old, weighing about 8 kg, were randomly separated into two groups and two dogs in each group, and fasted overnight. The dogs were administrated orally at a dose of 2.5 mg/kg (calculated by CM4309) of CM4309.TsOH or CM4309.H2O in capsule with 2×2 crossover design. Blood samples were collected before administration and at 0.25, 0.5, 1, 2, 4, 6, 8, 12, 24, 36 and 48 h after administration. The blood samples were centrifuged for 10 minutes at 3500 rpm to separate the plasma. The concentration of CM4309 in plasma was measured by LC/MS/MS to compare the PK difference between CM4309 salts and CM4309 (see Table 2).

[3] = individual rat, hydrochloride, 3 mg/kg
[4] = male, SD, rat, plasma, po, 3 mg/kg, Mean of 4 rats
[5] = male, SD, rat, plasma, po, 3 mg/kg, Mean of 4 rats, read-out: Cmax
[6] = male, SD, rat, plasma, po, 3 mg/kg, Mean of 4 rats, read-out: Tmax
[7] = male, SD, rat, plasma, po, 3 mg/kg, individual rat
[8] = male, SD, rat, plasma, po, 3 mg/kg, individual rat, read-out: Tmax
[9] = individual rat, p-toluenesulfonate, 3 mg/kg
[10] = Beagle dogs, 2.5 mg/kg oral in capsule, ratio to CM4309.H2O
[11] = individual dog, p-toluenesulfonate, 2.5 mg/kg

Cl.[2H]C([2H])([2H])NC(=O)c1cc(Oc2ccc(NC(=O)Nc3ccc(Cl)c(C(F)(F)F)c3)c(F)c2)ccn1 [CM4309.HCl, 4-(4-(3-(4-chloro-3-(trifluoromethyl)phenyl]ureido)-3-fluorophenoxy)-N-(methyl-d3)picolinamide hydrochloride]
HL_Lambda_z ([1]; Mean of 4 rats): 8.25 h
AUClast (Area Under Curve, Plasma Exposure) relative to CM4309.H2O [1]: 8.7 folds
Cmax relative to CM4309.H2O [1]: 8.4 folds
AUCINF_obs [1, 3]: 6634 ng·h/mL and 7151 ng·h/mL and 4379 ng·h/mL
AUClast [1, 3]: 6514 ng·h/mL and 7021 ng·h/mL and 4258 ng·h/mL
Cmax [1, 3]: 457 ng/mL and 460 ng/mL and 281 ng/mL
HL_Lambda_z [1, 3]: 8.17 h and 7.77 h and 8.32 h and 8.74 h
MRTINF_obs [1, 3]: 12.93 h and 12.58 h and 15.62 h
Tmax [1, 3]: 8 h
Tmax ([1]; male, SD, in vivo, po, individual rat, read-out: Tmax): 4 h
AUC(0-t) [1, 4]: 5570 ng·h/mL
AUC(0-inf) [1, 4]: 5690 ng·h/mL
Cmax [1, 5]: 379 ng/mL
MRT inf [1, 4]: 13.8 h
Tmax [1, 6]: 5.5 h
AUC(0-t) [1, 7]: 4490 ng·h/mL
AUC(0-inf) [1, 7]: 4610 ng·h/mL
Cmax ([1]; male, SD, rat, plasma, po, 3 mg/kg, individual rat, read-out: Cmax): 316 ng/mL
MRT inf [1, 7]: 13.9 h
Tmax [1, 8]: 6 h

Cc1ccc(S(=O)(=O)O)cc1.[2H]C([2H])([2H])NC(=O)c1cc(Oc2ccc(NC(=O)Nc3ccc(Cl)c(C(F)(F)F)c3)c(F)c2)ccn1 [CM4309.TsOH, 4-(4-(3-(4-chloro-3-(trifluoromethyl)phenyl]ureido)-3-fluorophenoxy)-N-(methyl-d3)picolinamide p-toluenesulfonate]
HL_Lambda_z ([1]; Mean of 4 rats): 7.91 h
AUClast (Area Under Curve, Plasma Exposure) relative to CM4309.H2O [1]: 11.2 folds
Cmax relative to CM4309.H2O [1]: 10.7 folds
AUCINF_obs [1, 9]: 5631 ng·h/mL and 7380 ng·h/mL and 10651 ng·h/mL
AUClast [1, 9]: 5542 ng·h/mL and 7237 ng·h/mL and 10406 ng·h/mL
Cmax [1, 9]: 312 ng/mL and 402 ng/mL and 518 ng/mL and 696 ng/mL
HL_Lambda_z [1, 9]: 8.55 h and 7.37 h and 7.48 h and 8.25 h
MRTINF_obs [1, 9]: 12.05 h and 12.72 h and 13.6 h
Tmax [1, 9]: 4 h
AUC(0-t) [1, 4]: 7180 ng·h/mL
AUC(0-inf) [1, 4]: 7340 ng·h/mL
Cmax [1, 5]: 482 ng/mL
MRT inf [1, 4]: 13.3 h
Tmax [1, 6]: 5.5 h
AUC(0-t) [1, 7]: 5540 ng·h/mL
AUC(0-inf) [1, 7]: 5700 ng·h/mL
MRT inf [1, 7]: 14.8 h
Tmax [1, 8]: 6 h
AUClast relative to CM4309.H2O [2, 10]: 12.1 folds
Cmax relative to CM4309.H2O [2, 10]: 26 folds
AUC(0-t) ([2]; female, Beagle, dog, plasma, po, 2.5 mg/kg, Mean of 4 dogs): 4870 ng·h/mL
Cmax ([2]; female, Beagle, dog, plasma, po, 2.5 mg/kg, Mean of 4 dogs, read-out: Cmax): 728 ng/mL
AUC(0-t) ([2]; female, Beagle, dog, plasma, po, 2.5 mg/kg, individual dog): 5240 ng·h/mL
Tmax ([2]; female, Beagle, individual dog, read-out: Tmax): 2 h
AUClast [2, 11]: 5362 ng·h/mL and 5045 ng·h/mL and 3827 ng·h/mL
Cmax [2, 11]: 996 ng/mL and 437 ng/mL and 483 ng/mL

[2H]C([2H])([2H])NC(=O)c1cc(Oc2ccc(NC(=O)Nc3ccc(Cl)c(C(F)(F)F)c3)c(F)c2)ccn1 [CM4309.H2O]
AUCINF_obs ([1]; Mean of 4 rats): 664 ng·h/mL
AUClast ([1]; Mean of 4 rats): 643 ng·h/mL
Cmax ([1]; Mean of 4 rats): 45.2 ng/mL
HL_Lambda_z ([1]; Mean of 4 rats): 7.62 h
MRTINF_obs ([1]; Mean of 4 rats): 13.55 h
Tmax ([1]; Mean of 4 rats): 6.5 h
AUCINF_obs ([1]; individual rat, 3 mg/kg): 701 ng·h/mL and 827 ng·h/mL and 657 ng·h/mL and 470 ng·h/mL
AUClast ([1]; individual rat, 3 mg/kg): 675 ng·h/mL and 806 ng·h/mL and 635 ng·h/mL and 459 ng·h/mL
Cmax ([1]; individual rat, 3 mg/kg): 52.6 ng/mL and 53.3 ng/mL and 42.9 ng/mL and 31.8 ng/mL
HL_Lambda_z ([1]; individual rat, 3 mg/kg): 8.73 h and 9.26 h and 6.41 h and 6.08 h
MRTINF_obs ([1]; individual rat, 3 mg/kg): 14.87 h and 14.06 h and 13 h and 12.25 h
Tmax ([1]; individual rat, 3 mg/kg): 6 h and 4 h and 8 h
AUClast ([2]; Mean of 4 dogs): 404 ng·h/mL
Cmax ([2]; Mean of 4 dogs): 28 ng/mL
Tmax ([2]; Mean of 4 dogs): 20 h
AUClast ([2]; individual dog, 2.5 mg/kg): 319 ng·h/mL and 829 ng·h/mL and 243 ng·h/mL and 224 ng·h/mL
Cmax ([2]; individual dog, 2.5 mg/kg): 34.6 ng/mL and 50 ng/mL and 11.1 ng/mL and 16.4 ng/mL
Tmax ([2]; individual dog, 2.5 mg/kg): 24 h and 8 h
